# Assay results published in PubChem BioAssay AID687005 (Broad Institute, 2013).
# Records with an inconclusive call do not appear. Calls of active or inactive are those of the source.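 The calls were made as follows: active = Compounds that reduce signal, with fitted half-maximal dose at or under twice the top valid tested dose; inconclusive = Poor fit, or flat curve losing 30 to 70% of signal; inactive = Potency past limit, flat within 30%, or opposite direction.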
# Assay: HEK293T cell cytotoxicity, dose response, cytotoxicity control, ATP luminescence, cherry-pick samples (AID 687005)
# Conditions: HEK293T viability, ATP luminescence (CellTiter-Glo), 48 h; at 23.5 µM (top of the series)
row,SMILES,"activity change, negative = cytotoxicity"
1,CO[C@@H]1CN(C)C(=O)c2ccc(NC(C)=O)cc2OC[C@@H](C)N(C(=O)c2ccccn2)C[C@H]1C,14.8% (inactive)
2,C[C@@H]1CN([C@H](C)CO)C(=O)c2cc(NS(=O)(=O)c3cn(C)cn3)ccc2O[C@H]1CN(C)C(=O)Nc1cccc2ccccc12,17.8% (inactive)
3,C[C@@H]1CN([C@@H](C)CO)C(=O)c2cc(NS(=O)(=O)c3ccccc3)ccc2O[C@H]1CN(C)C(=O)NC1CCCCC1,-17.7% (inactive)

# Same assay, conditions: HEK293T viability, ATP luminescence (CellTiter-Glo), 48 h; at 26 µM (top of the series)
row,SMILES,"activity change, negative = cytotoxicity"
1,CC(=O)N(C)C[C@H]1Oc2cc(C#Cc3ccc(F)cc3)ccc2S(=O)(=O)N([C@H](C)CO)C[C@@H]1C,53% (inactive)
2,CCCC#Cc1cnc2c(c1)C(=O)N([C@@H](C)CO)C[C@H](C)[C@H](CN(C)C(=O)Nc1cccc(F)c1)O2,42% (inactive)
3,CCCNC(=O)N(C)C[C@@H]1Oc2ncc(C#CCc3ccccc3)cc2C(=O)N([C@@H](C)CO)C[C@@H]1C,12% (inactive)
4,O=C(C1CCOCC1)N1C[C@H]2[C@@H](c3ccccc31)[C@@H](CO)N2Cc1ccccc1Cl,3.34% (inactive)
5,CC(C)NC(=O)Nc1ccc2c(c1)C(=O)N([C@@H](C)CO)C[C@@H](C)[C@H](CN(C)Cc1ccncc1)OCCCC[C@@H](C)O2,75.6% (inactive)
6,CCN1C(=S)N[C@@H](c2cccc(F)c2)C(C(=O)OC)=C1C,5.06% (inactive)
7,O=C(c1cccnc1)N1C[C@H]2[C@@H](c3ccccc31)[C@@H](CO)N2C(=O)Nc1ccc(F)cc1,-19.7% (inactive)
8,COc1ccccc1NC(=O)N[C@@H]1CC[C@@H](CCn2cc(C3(O)CCCC3)nn2)O[C@H]1CO,9.21% (inactive)
9,CCCN(C)C[C@@H]1OCCCC[C@H](C)Oc2ccc(NS(=O)(=O)c3ccc(C)cc3)cc2C(=O)N([C@H](C)CO)C[C@@H]1C,37.3% (inactive)
10,CO[C@H]1CN(C)C(=O)c2cc(NS(=O)(=O)CC(F)(F)F)ccc2OC[C@H](C)N(Cc2cccnc2)C[C@@H]1C,20.5% (inactive)
11,O=C(CN(c1ccccc1)S(=O)(=O)c1ccc(F)cc1)NC1CCS(=O)(=O)C1 (centres undefined),-0.328% (inactive)
12,C[C@H]1CN([C@@H](C)CO)C(=O)c2cc(NC(=O)CCN3CCOCC3)ccc2O[C@@H]1CN(C)Cc1ccc(C(=O)O)cc1,36.2% (inactive)
13,CC(C)NC(=O)Nc1ccc2c(c1)C(=O)N([C@@H](C)CO)C[C@H](C)[C@@H](CN(C)S(=O)(=O)c1cccs1)OCCCC[C@H](C)O2,-17.5% (inactive)
14,CC(=O)N[C@H]1CC[C@H](CCNC(=O)C2CCC2)O[C@@H]1CO,10.8% (inactive)
15,Cc1noc(C)c1S(=O)(=O)Nc1ccc2c(c1)CC(=O)N([C@H](C)CO)C[C@H](C)[C@@H](CN(C)S(=O)(=O)c1cn(C)cn1)O2,-28.7% (inactive)
16,C[C@@H]1CN([C@H](C)CO)C(=O)c2cc(NC(=O)Nc3cccc4ccccc34)ccc2O[C@@H](C)CCCCO[C@@H]1CN(C)Cc1ccc2c(c1)OCO2,-13.2% (inactive)
17,CC(C)NC(=O)N(C)C[C@H]1Oc2c(NS(=O)(=O)c3ccc(Cl)cc3)cccc2C(=O)N([C@@H](C)CO)C[C@@H]1C,-20.3% (inactive)
18,O=C(C[C@@H]1CC[C@H]2[C@@H](COC[C@@H](O)CN2C(=O)Nc2ccc(Cl)cc2)O1)NCCc1ccncc1,-9.46% (inactive)
19,CC=Cc1ccc2n(c1=O)C[C@H]1[C@H](CO)[C@@H](C(=O)NCc3ccc4c(c3)OCO4)[C@@H]2N1C(=O)C1CC1 (mixture of isomers),-15.5% (inactive)
20,Cc1ccccc1S(=O)(=O)N[C@@H]1CC[C@H](CCNS(=O)(=O)c2cccc(F)c2)O[C@H]1CO,-17.7% (inactive)

# Same assay, conditions: HEK293T viability, ATP luminescence (CellTiter-Glo), 48 h; at 28.5 µM (top of the series)
row,SMILES,"activity change, negative = cytotoxicity"
1,Cc1ccc(N(CC(N)=O)S(=O)(=O)c2ccc(F)cc2)cc1,-28% (inactive)
